Patent publication US11771685B2, “Compounds for the treatment of neurological or mitochondrial diseases” (MUSC FOUNDATION FOR RESEARCH DEVELOPMENT, priority 2018, dated 2023)
Where two headings read alike, the source gives them in different places.

How the values were obtained:
[1] = In vivo pharmacokinetics in CD-1 mice; parameters: species or system mouse; conditions: for Vd: read-out: Vss; for concentration at 24 hr / concentration at 8 hr: read-out: Clast; for concentration at 8 hr: 8 hr post-dose
Protocol: (§1) PK studies on 3 and 25 were carried out in CD-1 mice. Three males were dosed via oral gavage needle for oral administration at 20 mg/kg (10 mL/kg) or via intravenous administration at 5 mg/kg (10 mL/kg). Blood samples were taken at time intervals between 5 min and 24 hr from each animal.
The PK studies of 1 were performed by WuXi AppTec and PK studies of 3 and 25 were performed by Touchstone Biosciences (Peng et al., 2006b; Peng et al., 2001; Peng et al., 2006a; Peng et al., 2009). Male CD-1 mice were fed a standard laboratory rodent diet and housed in individual cages on a 12 hr light and 12 hr dark cycle with room temperature maintained at 22±3° C. and relative humidity at 50±20%. Animals were typically fasted overnight before dosing, with food returned after the 6 hr blood samples were obtained. Water was provided ad libitum throughout the study. The dosing solution of each test compound was prepared in a desired oral or intravenous formulation. Three to four animals were dosed via gavage needle for oral administration at 10-20 mg/kg (10-20 mL/kg) or via tail vein injection for IV administration at 2-5 mg/kg (2-5 mL/kg). […] Fluid replacement (1.5 mL of 0.9% NaCl injection, USP) was administered subcutaneously once after the 2 hr blood sampling. Blood samples were collected in BD Microtainer tubes coated with anticoagulant, placed on ice, and within 30 min, centrifuged at 15,000 g for 5 min to obtain plasma samples. All plasma samples were stored at −70° C. until analysis.
Plasma samples were prepared as follows. Three volumes of acetonitrile containing internal standard was added to one volume of plasma to precipitate proteins. Samples were centrifuged (3000 g for 10 min) and supernatant removed for analysis by LC-MS/MS. Calibration standards and quality controls were made by preparation of a 1 mg/mL stock solution and subsequently a series of working solutions in methanol:water (1:1, v/v) which were spiked into blank plasma to yield a series of calibration standard samples in the range of 1.0 ng/mL to 10 μg/mL and quality control samples at three concentration levels (low, middle and high). All incurred PK/PD plasma samples were treated identically to the calibration standards and quality control samples. LC-MS-MS analysis was performed utilizing multiple reaction monitoring for detection of characteristic ions for each drug candidate, additional related analytes and internal standard.
Plasma concentrations were measured as described above to determine a concentration vs. time profile. The area under the plasma concentration vs time curve (AUC) was calculated using the linear trapezoidal method. Fitting of the data to obtain pharmacokinetic parameters was carried out using non-compartmental analysis. Key PK parameters reported following intravenous administration are as follows: terminal half-life t1/2, initial plasma concentration C0, area under the plasma concentration vs. time curve AUC, volume of distribution at steady-state Vss, total plasma clearance CLp, and mean residence time MRT. Key PK parameters reported following extravascular administration are as follows: terminal half-life t1/2, maximum plasma concentration Cmax, time to reach maximum plasma concentration tmax, area under the plasma concentration vs. time curve AUC, mean residence time MRT, and bioavailability F. All parameters are expressed for individual animals as well as mean, standard deviation, and coefficient of variation.

[2] = Clinical observations in dosed mice; format: in vivo; conditions: for pigmented urine: efficacy studies, 5% DMSO:95% Neobee formulation; for clinical symptoms during the IV study: intravenous 5 mg/kg, CD-1 mice
Protocol: as §1
PO PK experiments were repeated for 25, with oral dosing at 20 mg/kg and 10 mL/kg of a suspension with 1% Tween 80:1% carboxymethylcellulose in water.
Table 2 provides a summary of efficacy studies in vivo in mice, and in rat brain slices, using the 5% DMSO:95% Neobee formulation.

[3] = intraperitoneal 20 mg/kg, 5% DMSO: 95% neobee
[4] = intravenous 5 mg/kg, 20% DMA: 40% PEG300: 40% H2O
[5] = intravenous, 3 and 25 at 5 mg/kg, 5 mg/kg
[6] = male, CD-1, mouse, plasma, ip, 20 mg/kg, intraperitoneal 20 mg/kg, 5% DMSO: 95% neobee
[7] = male, CD-1, mouse, plasma, iv, 5 mg/kg, intravenous 5 mg/kg, 20% DMA: 40% PEG300: 40% H2O
[8] = male, CD-1, mouse, plasma, iv, 5 mg/kg, intravenous 5 mg/kg, 20% DMA: 40% PEG300: 40% H2O, read-out: CLp
[9] = male, CD-1, mouse, plasma, iv, 5 mg/kg, intravenous, 3 and 25 at 5 mg/kg, read-out: CL
[10] = male, CD-1, mouse, plasma, iv, 5 mg/kg, intravenous, 3 and 25 at 5 mg/kg
[11] = male, CD-1, mouse, plasma, iv, 5 mg/kg, 3 and 25 at 5 mg/kg
[12] = male, CD-1, mouse, plasma, po, 20 mg/kg, oral 20 mg/kg, 5% DMSO: 95% Neobee
[13] = male, CD-1, mouse, plasma, po, 20 mg/kg, oral 20 mg/kg, 20% DMA-40% PEG300-40% H2O
[14] = male, CD-1, mouse, plasma, po, 20 mg/kg, oral 20 mg/kg, 20% DMA-40% PEG300-40% H2O, read-out: Cmax
[15] = male, CD-1, mouse, plasma, intraperitoneal 20 mg/kg, 5% DMSO: 95% neobee
[16] = male, CD-1, mouse, plasma, intravenous, 5 mg/kg
[17] = male, CD-1, mouse, plasma, intravenous, 3 and 25 at 5 mg/kg
[18] = male, CD-1, mouse, plasma, oral 20 mg/kg, 5% DMSO: 95% Neobee
[19] = male, CD-1, mouse, plasma, oral 20 mg/kg, 20% DMA-40% PEG300-40% H2O
[20] = oral 20 mg/kg, 5% DMSO: 95% Neobee
[21] = oral 20 mg/kg, 20% DMA-40% PEG300-40% H2O
[22] = male, CD-1, mouse, plasma, po, 20 mg/kg, oral 20 mg/kg, suspension 1% Tween 80:1% carboxymethylcellulose in water

With `CCC#CCNC1=CC(=O)c2ccccc2C1=O` [Compound 3, 2-(Pent-2-yn-1-ylamino)naphthalene-1,4-dione] the tlast [1, 3] was 24 h, the Clast [1, 4] was 1.37 ng/mL and the AUCinf/D ([1]; intravenous, 5 mg/kg) was 89.6 h·(ng/mL)/(mg/kg). For the same molecule, the tlast ([1]; intravenous, 5 mg/kg) was 24 h, the t1/2 [1, 5] was about 15 h and the Kp ([1]; male, CD-1, mouse, brain/plasma, listed under intravenous 5 mg/kg, read-out: Brain Plasma Ratio) was 0.373. The AUC(0-t) [1, 6] was 463 ng·h/mL, the half-life [1, 6] was 7.25 h and the AUC(0-inf) [1, 7] was 448 ng·h/mL. For the same molecule, the AUC(0-t) [1, 7] was 421 ng·h/mL, the MRT inf [1, 7] was 4.28 h and the half-life [1, 7] was 14.7 h. The clearance [1, 8] was 188 mL/min/kg, the Vd [1, 7] was 48.6 L/kg and the clearance [1, 9] was 188 mL/min/kg. The Vd [1, 10] was 48.6 L/kg, the AUC(0-inf) [1, 11] was 448 ng·h/mL and the AUC(0-t) [1, 11] was 421 ng·h/mL. For the same molecule, the MRT inf [1, 11] was 4.28 h, the half-life [1, 11] was 14.7 h and the AUC(0-inf) [1, 12] was 688 ng·h/mL. The AUC(0-t) [1, 12] was 682 ng·h/mL, the MRT inf [1, 12] was 5.71 h and the Tmax [1, 12] was 4 h. For the same molecule, the half-life [1, 12] was 3.34 h, the Cmax ([1]; male, CD-1, mouse, plasma, po, 20 mg/kg, oral 20 mg/kg, 5% DMSO: 95% Neobee, read-out: Cmax) was 90.2 ng/mL and the AUC(0-inf) [1, 13] was 992 ng·h/mL. The AUC(0-t) [1, 13] was 738 ng·h/mL, the MRT inf [1, 13] was 5.82 h and the Tmax [1, 13] was 0.139 h. The half-life [1, 13] was 5.27 h, the Cmax [1, 14] was 394 ng/mL and the concentration at 24 hr [1, 15] was 1.47 ng/mL. It also gave a concentration at 24 hr [1, 16] of 1.37 ng/mL, a C0 [1, 17] of 1520 ng/mL and a concentration at 24 hr [1, 18] of 1.21 ng/mL. The concentration at 8 hr [1, 19] was 33.1 ng/mL, the F [1, 20] was 38.4% and the tlast [1, 20] was 24 h. The AUCinf/D [1, 21] was 49.6 h·(ng/mL)/(mg/kg), the Cmax/D [1, 21] was 19.8 (ng/mL)/(mg/kg) and the F [1, 21] was 55.3%. For the same molecule, the tlast [1, 21] was 8 h, the pigmented urine [2] was “showed pigmented urine” and the “clinical symptoms during the IV study” value [2] was “no abnormal clinical symptoms”.
With `CC(C)CCNC1=CC(=O)c2ccccc2C1=O` [Compound 17, 2-(Isopentylamino)naphthalene-1,4-dione] the T1/2 [1, 3] was 3.38 h, the tlast [1, 3] was 24 h and the Clast [1, 4] was 0.154 ng/mL. For the same molecule, the T1/2 [1, 4] was 4.47 h, the AUC(0-t) [1, 6] was 1720 ng·h/mL and the AUC(0-inf) [1, 7] was 637 ng·h/mL. It also gave an MRT inf [1, 7] of 0.874 h, a clearance [1, 8] of 131 mL/min/kg and a Vd [1, 7] of 6.89 L/kg. The AUC(0-inf) [1, 12] was 914 ng·h/mL, the MRT inf [1, 12] was 2.5 h and the Tmax [1, 12] was 0.25 h. It also gave a concentration at 24 hr [1, 15] of 1.95 ng/mL, a C0 ([1]; male, CD-1, mouse, plasma, intravenous 5 mg/kg, 20% DMA: 40% PEG300: 40% H2O) of 1910 ng/mL and a concentration at 24 hr [1, 18] of 1.43 ng/mL. The Cmax [1, 20] was 1025 ng/mL, the F [1, 20] was 35.9% and the t1/2 [1, 20] was 5.28 h. For the same molecule, the tlast [1, 20] was 24 h and the pigmented urine [2] was “Pigmented urine was not seen”.
With `CC(C)CCOC1=CC(=O)c2ccccc2C1=O` [Compound 25, 2-(Isopentyloxy)naphthalene-1,4-dione] the AUCinf/D ([1]; intravenous, 5 mg/kg) was 242 h·(ng/mL)/(mg/kg), the tlast ([1]; intravenous, 5 mg/kg) was 24 h and the CL [1, 5] was 69 mL/min/kg. For the same molecule, the Vss [1, 5] was 13 L/kg, the clearance [1, 9] was 68.8 mL/min/kg and the Vd [1, 10] was 13.2 L/kg. For the same molecule, the AUC(0-inf) [1, 11] was 1210 ng·h/mL, the AUC(0-t) [1, 11] was 1200 ng·h/mL and the MRT inf [1, 11] was 3.2 h. The half-life [1, 11] was 4.31 h, the AUC(0-inf) [1, 13] was 11500 ng·h/mL and the AUC(0-t) [1, 13] was 7360 ng·h/mL. It also gave an MRT inf [1, 13] of 7.84 h, a Tmax [1, 13] of 0.333 h and a half-life [1, 13] of 5.56 h. For the same molecule, the Cmax [1, 14] was 2080 ng/mL, the AUC(0-inf) [1, 22] was 1950 ng·h/mL and the half-life [1, 22] was 3.49 h. For the same molecule, the Cmax ([1]; male, CD-1, mouse, plasma, po, 20 mg/kg, oral 20 mg/kg, suspension 1% Tween 80:1% carboxymethylcellulose in water, read-out: Cmax) was 282 ng/mL, the bioavailability ([1]; male, CD-1, mouse, plasma, po, 20 mg/kg, oral 20 mg/kg, suspension 1% Tween 80:1% carboxymethylcellulose in water, read-out: oral bioavailability (F)) was 40.3% and the concentration at 24 hr [1, 16] was 2.26 ng/mL. For the same molecule, the C0 [1, 17] was 1600 ng/mL, the concentration at 8 hr [1, 19] was 531 ng/mL and the “decrease of Cmax and AUC, suspension vs solution formulation” value ([1]; oral 20 mg/kg) was 6-7 fold. For the same molecule, the AUCinf/D [1, 21] was 576 h·(ng/mL)/(mg/kg), the Cmax/D [1, 21] was 104 (ng/mL)/(mg/kg) and the tlast [1, 21] was 8 h. The T1/2 ([1]; oral 20 mg/kg, 20% DMA-40% PEG300-40% H2O, 20 mg/kg) was 5.6 h, the “oral bioavailability (F)” value ([1]; oral 20 mg/kg, suspension 1% Tween 80:1% carboxymethylcellulose in water, 20 mg/kg) was 40% and the “clinical symptoms during the IV study” value [2] was “no abnormal clinical symptoms”. The “clinical symptoms after oral dosing” value ([2]; oral 20 mg/kg, suspension 1% Tween 80:1% carboxymethylcellulose in water) was “No abnormal clinical symptoms”.
